Test system in one data set: not listed separately
Put plainly: Cytotoxicity against human KB cells after 3 days by fluorometric assay. It counts as toxicity, cell-based. The note with it: read-out: ED50.
Regarding `CCCCOC(=O)CNC(=O)[C@H](CSc1ccc([N+](=O)[O-])cc1[N+](=O)[O-])NC(=O)CC[C@H](NC(=O)COc1ccccc1)C(=O)OCCCC`, the CC50 at 72 h was over 300 µM.
Same read-out and setting: with `CCCCOC(=O)CNC(=O)[C@H](CSc1ccc([N+](=O)[O-])cc1[N+](=O)[O-])NC(=O)CC[C@H](NC(=O)CC(C)(C)C)C(=O)OCCCC` the figure was 250 µM.
Same read-out and setting: with `CCCCCCCCCCCCCC(=O)N[C@@H](CCC(=O)N[C@@H](CSc1ccc([N+](=O)[O-])cc1[N+](=O)[O-])C(=O)NCC(=O)OCCCC)C(=O)OCCCC` the figure was over 300 µM; with `CCCCOC(=O)CNC(=O)[C@H](CSc1ccc([N+](=O)[O-])cc1[N+](=O)[O-])NC(=O)CC[C@H](NC(=O)CCc1c[nH]c2ccccc12)C(=O)OCCCC`, 26 µM.
For `CCCCOC(=O)CNC(=O)[C@H](CSc1ccc([N+](=O)[O-])cc1[N+](=O)[O-])NC(=O)CC[C@H](Nc1ccc([N+](=O)[O-])cc1[N+](=O)[O-])C(=O)OCCCC`, the CC50 at 72 h was over 300 µM.
The same measure, in the same setting: with `CCCCOC(=O)CNC(=O)[C@H](CSc1ccc([N+](=O)[O-])cc1[N+](=O)[O-])NC(=O)CC[C@H](NC(=O)CCC(C)C)C(=O)OCCCC` the figure was 84 µM; with `CCCCOC(=O)CNC(=O)[C@H](CSc1ccc([N+](=O)[O-])cc1[N+](=O)[O-])NC(=O)CC[C@H](NC(=O)/C=C/c1ccccc1)C(=O)OCCCC`, 34.4 µM; with `CCCCOC(=O)CNC(=O)[C@H](CSc1ccc([N+](=O)[O-])cc1[N+](=O)[O-])NC(=O)CC[C@H](NC(C)=O)C(=O)OCCCC`, over 300 µM.
As for `CCCCOC(=O)CNC(=O)[C@H](CSc1ccc([N+](=O)[O-])cc1[N+](=O)[O-])NC(=O)CC[C@H](Nc1nc(N)nc(Cl)n1)C(=O)OCCCC`, the CC50 at 72 h is over 300 µM.

Test system in a further data set: not listed separately
In words: Drug release from Trypanosoma brucei brucei S247 bloodstream forms cell membrane treated with N-benzyloxy carbonyl-S-(4-bromobenzyl)glutathione dimethyl ester at 50 uM after 120 mins in presence of 6 M urea by HPLC-UV method. Type of data set: ADME, tissue-based. The note with it: blood, 2 h.
As for `COC(=O)CNC(=O)[C@H](CSCc1ccc(Br)cc1)NC(=O)CC[C@H](NC(=O)OCc1ccccc1)C(=O)O`, the Drug uptake is 8%.
The same measure, in the same setting: to `O=C(O)CNC(=O)[C@H](CSCc1ccc(Br)cc1)NC(=O)CC[C@H](NC(=O)OCc1ccccc1)C(=O)O` belongs 12%.

Test system in the next data set: not listed separately
Put plainly: Selectivity index, ratio of ED50 for human KB cells to ED50 for Trypanosoma brucei rhodesiense STIB900 bloodstream trypomastigote forms. As to conditions: read-out: Ratio ED50. It counts as toxicity, cell-based.
As for `CCCCOC(=O)CNC(=O)[C@H](CSc1ccc([N+](=O)[O-])cc1[N+](=O)[O-])NC(=O)CC[C@H](NC(=O)COc1ccccc1)C(=O)OCCCC`, the selectivity ratio was over 500.
Still for that read-out and setting: with `CCCCOC(=O)CNC(=O)[C@H](CSc1ccc([N+](=O)[O-])cc1[N+](=O)[O-])NC(=O)CC[C@H](NC(=O)CC(C)(C)C)C(=O)OCCCC` the figure was 57.1; with `CCCCCCCCCCCCCC(=O)N[C@@H](CCC(=O)N[C@@H](CSc1ccc([N+](=O)[O-])cc1[N+](=O)[O-])C(=O)NCC(=O)OCCCC)C(=O)OCCCC`, over 9.2; with `CCCCOC(=O)CNC(=O)[C@H](CSc1ccc([N+](=O)[O-])cc1[N+](=O)[O-])NC(=O)CC[C@H](NC(=O)CCc1c[nH]c2ccccc12)C(=O)OCCCC`, 87.
On the same count and under the same terms, to `CCCCOC(=O)CNC(=O)[C@H](CSc1ccc([N+](=O)[O-])cc1[N+](=O)[O-])NC(=O)CC[C@H](Nc1ccc([N+](=O)[O-])cc1[N+](=O)[O-])C(=O)OCCCC` belongs over 417; to `CCCCOC(=O)CNC(=O)[C@H](CSc1ccc([N+](=O)[O-])cc1[N+](=O)[O-])NC(=O)CC[C@H](NC(=O)CCC(C)C)C(=O)OCCCC`, 82.3; to `CCCCOC(=O)CNC(=O)[C@H](CSc1ccc([N+](=O)[O-])cc1[N+](=O)[O-])NC(=O)CC[C@H](NC(=O)/C=C/c1ccccc1)C(=O)OCCCC`, 123.
Same read-out and setting: to `CCCCOC(=O)CNC(=O)[C@H](CSc1ccc([N+](=O)[O-])cc1[N+](=O)[O-])NC(=O)CC[C@H](NC(C)=O)C(=O)OCCCC` belongs over 46; to `CCCCOC(=O)CNC(=O)[C@H](CSc1ccc([N+](=O)[O-])cc1[N+](=O)[O-])NC(=O)CC[C@H](Nc1nc(N)nc(Cl)n1)C(=O)OCCCC`, over 15.9.

A further data set has as its system Trypanosoma brucei rhodesiense. Put plainly: Antitrypanosomal activity against Trypanosoma brucei rhodesiense STIB900 bloodstream trypomastigote forms measured on day 3 post treatment by alamar blue assay. The note with it: STIB900, 72 h, read-out: ED50 (the source's name). It counts as functional. A general note: Alamar Blue is a resazurin reagent that responds to reducing activity.
In the case of `CCCCOC(=O)CNC(=O)[C@H](CSc1ccc([N+](=O)[O-])cc1[N+](=O)[O-])NC(=O)CC[C@H](NC(=O)COc1ccccc1)C(=O)OCCCC`, the EC50 amounted to 0.6 µM.
On the same count and under the same terms, with `CCCCOC(=O)CNC(=O)[C@H](CSc1ccc([N+](=O)[O-])cc1[N+](=O)[O-])NC(=O)CC[C@H](NC(=O)CC(C)(C)C)C(=O)OCCCC` the figure was 4.38 µM; with `CCCCCCCCCCCCCC(=O)N[C@@H](CCC(=O)N[C@@H](CSc1ccc([N+](=O)[O-])cc1[N+](=O)[O-])C(=O)NCC(=O)OCCCC)C(=O)OCCCC`, 32.6 µM.
On the same count and under the same terms, to `CCCCOC(=O)CNC(=O)[C@H](CSc1ccc([N+](=O)[O-])cc1[N+](=O)[O-])NC(=O)CC[C@H](NC(=O)CCc1c[nH]c2ccccc12)C(=O)OCCCC` belongs 0.3 µM.
In the case of `CCCCOC(=O)CNC(=O)[C@H](CSc1ccc([N+](=O)[O-])cc1[N+](=O)[O-])NC(=O)CC[C@H](Nc1ccc([N+](=O)[O-])cc1[N+](=O)[O-])C(=O)OCCCC`, the EC50 came to 0.72 µM.
Same read-out and setting: with `CCCCOC(=O)CNC(=O)[C@H](CSc1ccc([N+](=O)[O-])cc1[N+](=O)[O-])NC(=O)CC[C@H](NC(=O)CCC(C)C)C(=O)OCCCC` the figure was 1.02 µM; with `CCCCOC(=O)CNC(=O)[C@H](CSc1ccc([N+](=O)[O-])cc1[N+](=O)[O-])NC(=O)CC[C@H](NC(=O)/C=C/c1ccccc1)C(=O)OCCCC`, 0.28 µM; with `CCCCOC(=O)CNC(=O)[C@H](CSc1ccc([N+](=O)[O-])cc1[N+](=O)[O-])NC(=O)CC[C@H](NC(C)=O)C(=O)OCCCC`, 6.52 µM.
On the same count and under the same terms, to `CCCCOC(=O)CNC(=O)[C@H](CSc1ccc([N+](=O)[O-])cc1[N+](=O)[O-])NC(=O)CC[C@H](Nc1nc(N)nc(Cl)n1)C(=O)OCCCC` belongs 18.8 µM; to `N=C(N)c1ccc(OCCCCCOc2ccc(C(=N)N)cc2)cc1`, 0.00033 µM.

Test system in another data set: not listed separately
Put plainly: Drug release from Trypanosoma brucei brucei S247 bloodstream forms cell membrane treated with N-benzyloxy carbonyl-S-(4-bromobenzyl)glutathione dimethyl ester at 50 uM after 120 mins in presence of 1 M NaCl by HPLC-UV method. It counts as ADME. The note with it: 2 h.
For `COC(=O)CNC(=O)[C@H](CSCc1ccc(Br)cc1)NC(=O)CC[C@H](NC(=O)OCc1ccccc1)C(=O)O`, the Drug uptake is on record as 24%.

The subject of the next data set is Trypanosoma cruzi. In words: Antitrypanosomal activity against Trypanosoma cruzi MHOM/BR/OO/Y trypomastigotes infected in CD1 mouse peritoneal macrophages after 3 days. Type of data set: functional. As to conditions: 72 h, read-out: ED50 (the source's name).
In the case of `CCCCOC(=O)CNC(=O)[C@H](CSc1ccc([N+](=O)[O-])cc1[N+](=O)[O-])NC(=O)CC[C@H](NC(=O)COc1ccccc1)C(=O)OCCCC`, the EC50 was over 30 µM.
Same read-out and setting: to `CCCCOC(=O)CNC(=O)[C@H](CSc1ccc([N+](=O)[O-])cc1[N+](=O)[O-])NC(=O)CC[C@H](NC(=O)CC(C)(C)C)C(=O)OCCCC` belongs 12 µM; to `CCCCCCCCCCCCCC(=O)N[C@@H](CCC(=O)N[C@@H](CSc1ccc([N+](=O)[O-])cc1[N+](=O)[O-])C(=O)NCC(=O)OCCCC)C(=O)OCCCC`, over 30 µM.
Consider `CCCCOC(=O)CNC(=O)[C@H](CSc1ccc([N+](=O)[O-])cc1[N+](=O)[O-])NC(=O)CC[C@H](NC(=O)CCc1c[nH]c2ccccc12)C(=O)OCCCC`, for which the EC50 is 35 µM.
The same measure, in the same setting: with `CCCCOC(=O)CNC(=O)[C@H](CSc1ccc([N+](=O)[O-])cc1[N+](=O)[O-])NC(=O)CC[C@H](NC(=O)/C=C/c1ccccc1)C(=O)OCCCC` the figure was over 30 µM; with `CCCCOC(=O)CNC(=O)[C@H](CSc1ccc([N+](=O)[O-])cc1[N+](=O)[O-])NC(=O)CC[C@H](NC(C)=O)C(=O)OCCCC`, 37.8 µM.
On to `O=C(Cn1ccnc1[N+](=O)[O-])NCc1ccccc1` [BENZNIDAZOLE], for which the EC50 was 4.4 µM.
